From US6706880B2 (Research Triangle Institute, priority 1990, dated 2004)
Where a name gives a salt, the structure may show the parent alone. Read-outs that look alike come from different tables or passages of the source.

What was measured:
[1] = molecular target: norepinephrine transporter (UniProt Q9WTR4); assay: Inhibition of [3H]nisoxetine radioligand binding at the norepinephrine transporter
From the text: (§1) Illustrative in vitro assays for binding are described in Boja et al Ann. NY Acad. Sci. 654:282-291 (1992), which is incorporated herein by reference in its entirety. […] Alternatively, the compounds may be analyzed by their ability to inhibit reuptake of a labelled neurotransmitter in a sample, in particular, in synaptosomes.

serotonin transporter = molecular target: T1, serotonin transporter (Rattus norvegicus, UniProt P31652); assay: Inhibition of [3H]paroxetine radioligand binding at the serotonin transporter
T1 construct: from tissue
T1 sequence (P31652 whole entry): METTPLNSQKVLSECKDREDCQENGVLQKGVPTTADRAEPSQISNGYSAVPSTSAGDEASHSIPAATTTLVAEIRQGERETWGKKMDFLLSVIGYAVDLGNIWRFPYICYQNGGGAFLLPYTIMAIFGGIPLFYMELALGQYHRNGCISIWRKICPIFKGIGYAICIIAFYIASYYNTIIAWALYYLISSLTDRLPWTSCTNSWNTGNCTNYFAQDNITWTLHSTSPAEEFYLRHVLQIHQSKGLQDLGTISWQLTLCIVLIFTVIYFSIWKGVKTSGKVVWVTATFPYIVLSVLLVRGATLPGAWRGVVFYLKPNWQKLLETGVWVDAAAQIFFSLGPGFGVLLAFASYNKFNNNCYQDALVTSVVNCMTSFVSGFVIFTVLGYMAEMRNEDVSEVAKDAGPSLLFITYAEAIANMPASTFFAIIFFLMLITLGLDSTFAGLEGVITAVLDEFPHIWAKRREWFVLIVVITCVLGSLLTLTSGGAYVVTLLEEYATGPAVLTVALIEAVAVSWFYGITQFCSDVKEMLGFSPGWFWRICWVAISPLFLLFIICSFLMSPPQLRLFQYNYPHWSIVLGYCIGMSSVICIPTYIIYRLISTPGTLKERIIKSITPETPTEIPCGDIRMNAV
From the text: as §1

dopamine transporter [2] = format: binding; settings: ratio of IC50 values, Table II
From the text: as §1

dopamine transporter [3] = molecular target: dopamine transporter (UniProt P23977); format: binding
From the text: as §1

[4] = read-out: IC50 NE [3H]-nisoxetine, Table II
[5] = read-out: NEN IC50 for inhibition of radioligand binding, NEN=[3H] nisoxetine
[6] = 5-HT IC50 for inhibition of radioligand binding, 5-HT=[3H] paroxetine
[7] = IC50 5-HT [3H]-paroxatine, Table II
[8] = read-out: DA IC50 for inhibition of radioligand binding, DA=[3H]WIN 35,428
[9] = read-out: IC50 DA [3H]-WIN 35,428, Table II
[10] = 5-HT=[3H] paroxetine, read-out: 5-HT IC50 for inhibition of radioligand binding
[11] = Table II, read-out: IC50 5-HT [3H]-paroxatine (converted)

Row | SMILES | IC50 [1, 4] [nM] | IC50 [1, 5] [nM] | IC50 (serotonin transporter; [6]) [nM] | IC50 (serotonin transporter; [7]) [nM] | 5-HT/DA Ratio (dopamine transporter [2]) | NE/DA Ratio (dopamine transporter [2]) | IC50 (dopamine transporter [3]; [8]) [nM] | IC50 (dopamine transporter [3]; [9]) [nM] | IC50 (serotonin transporter; [10]) [nM] | IC50 (serotonin transporter; [11]) [nM] | melting point | IC50 ([1]; read-out: IC50 NE [3H]-nisoxetine, Table IV) [nM] | IC50 (serotonin transporter; IC50 5-HT [3H]-paroxetine, Table IV) [nM] | IC50 (dopamine transporter [3]; read-out: IC50 DA [3H]-WIN 35,428, Table IV) [nM]
1 | CN1C2CCC1C(c1nnc(-c3ccccc3)s1)C(c1ccc(Cl)cc1)C2 (stereo not drawn) [RTI-4229-200, 3β-(4-Chlorophenyl)-2β-(S-phenyl-1,3,4-thiadiazol-2-yl)-tropane Hydrochloride] | 4140 ± 466 | 4140 | 18400 | 18400 | 1203 | 271 | 15.3 | 15.3 ± 2.43 | – | – | – | – | – | –
2 | Cc1ccc(C2CC3CCC(C2c2cc(C)no2)N3C)cc1.Cl (stereo not drawn) [RTI-4229-171, 3β-(4-Methylphenyl)-2P-(3-methylisoxazol-5-yl)tropane Hydrochloride] | 254 | 254 | – | – | 4105 | 273 | 0.93 | 0.93 | 3820 | 3820 | – | – | – | –
3 | Cc1ccc([C@H]2C[C@@H]3CC[C@H]([C@H]2c2nnc(-c4ccccc4)s2)N3C)cc1 [RTI-4229-199, 3β-(4-Methylphenyl)-2β-(5-phenyl-1,3,4-thiadiazol-2-yl)-tropane Hydrochloride] | 24300 | – | 51500 | 51500 | 1434 | 677 | 35.9 | 35.9 | – | – | – | – | – | –
4 | Cc1ccc([C@H]2C[C@@H]3CC[C@H]([C@H]2c2nn[nH]n2)N3C)cc1 (as salt: hydrochloride) [RTI-157, 3β-(4-Methylphenyl)-tropane-2β-tetrazole Hydrochloride] | – | – | – | – | – | – | – | – | – | – | < 212 °C (dec.) | – | – | –
5 | CN1[C@H]2CC[C@@H]1[C@@H](c1nnc(-c3ccccc3)o1)[C@@H](c1ccc(Cl)cc1)C2 [RTI-4229-188, 3β-(4-Chlorophenyl)-2β-(5-phenyl-1,3,4-oxadiazol-2-yl)-tropane Hydrochloride] | 929 ± 88 | 929 | – | 3300 ± 196 | 262 | 73 | 12.6 | 12.6 ± 1.03 | 3300 | – | – | – | – | –
6 | Cc1cc([C@H]2[C@@H](c3ccc(Cl)cc3)C[C@@H]3CC[C@H]2N3C)on1 (as salt: hydrochloride) [RTI-165, 3β-(4-Chlorophenyl)-2β-(3-methylisoxazol-5-yl)tropane Hydrochloride] | – | – | – | – | – | – | – | – | – | – | 235 °C (dec.) | – | – | –
7 | CN1[C@H]2CC[C@@H]1[C@@H](c1cc(-c3ccccc3)no1)[C@@H](c1ccc(I)cc1)C2 [RTI-4229-181, 3β-(4-Iodophenyl)-2β-(3-phenylisoxazol-5-yl)tropane Hydrochloride] | 868 | 868 | 100 | 100 | 39 | 337 | 2.57 | 2.57 | – | – | – | – | – | –
8 | CN1[C@H]2CC[C@@H]1[C@@H](c1ncc(-c3ccccc3)s1)[C@@H](c1ccc(Cl)cc1)C2 [RTI-4229-219, 3β-(4-Chlorophenyl)-2β-(5-phenylthiazol-2-yl)-tropane Hydrochloride] | – | 8560 | 10300 | 10300 | 1811 | – | 5.71 | – | – | – | – | – | – | –
9 | CN1[C@H]2CC[C@@H]1[C@@H](c1cc(-c3ccccc3)no1)[C@@H](c1ccc(Cl)cc1)C2 (as salt: hydrochloride) [RTI-4229-177, 3β-(4-Chlorophenyl)-2β-(3-phenylisoxazol-5-yl)tropane Hydrochloride] | – | – | – | – | – | – | – | – | – | – | 287 °C | – | – | –
10 | CN1C2CCC1C(c1nnc(-c3ccccc3)s1)C(c1ccc(Cl)cc1)C2 (stereo not drawn) (as salt: hydrochloride) [RTI-4229-200, 3β-(4-Chlorophenyl)-2β-(S-phenyl-1,3,4-thiadiazol-2-yl)-tropane Hydrochloride] | – | – | – | – | – | – | – | – | – | – | 165 to 170 °C | – | – | –
11 | Cc1ccc([C@H]2C[C@@H]3CC[C@H]([C@H]2c2nnc(C)o2)N3C)cc1 [RTI-4229-194, 3β-(4-Methylphenyl)-2β-(5-methyl-1,3,4-oxadiazol-2-yl)-tropane Hydrochloride] | 253 ± 19 | 253 | 4880 | 4880 ± 155 | 1098 | 57 | 4.45 | 4.45 ± 0.12 | – | – | – | – | – | –
12 | Cc1ccc([C@H]2C[C@@H]3CC[C@H]([C@H]2c2ncc(-c4ccccc4)o2)N3C)cc1 [RTI-4229-178, 3β-(4-Methylphenyl)-2β-(5-phenyl-oxazol-2-yl)-tropane Tartrate] | 677 | 677 | 1700 | 1700 | 48 | 19 | 35.4 | 35.4 | – | – | – | – | – | –
13 | CN1[C@H]2CC[C@@H]1[C@@H](c1cc(-c3ccccc3)no1)[C@@H](c1ccc(Cl)cc1)C2 [RTI-4229-177, 3β-(4-Chlorophenyl)-2β-(3-phenylisoxazol-5-yl)tropane Hydrochloride] | 504 ± 29 | 504 | 2420 | 2420 ± 136 | 1889 | 393 | 1.28 | 1.28 ± 0.18 | – | – | – | – | – | –
14 | CN1[C@H]2CC[C@@H]1[C@@H](C#N)[C@@H](c1ccc(Cl)cc1)C2 [RTI-161, 3β-(4-Chlorophenyl)-tropane-2β-nitrile] | – | – | – | – | – | – | – | – | – | – | > 220 °C (dec.) | 2520 ± 253 | 1890 ± 134 | 13.1 ± 0.78
15 | Cc1ccc([C@H]2C[C@@H]3CC[C@H]([C@H]2c2nnc(-c4ccccc4)o2)N3C)cc1 [RTI-4229-195, 3β-(4-Methylphenyl)-2β-(5-phenyl-1,3,4-oxadiazol-2-yl)-tropane Hydrochloride] | 1310 | 1310 | 22300 | 23300 | 491 | 28 | 47.5 | 47.5 | – | – | – | – | – | –
16 | Cc1ccc([C@H]2C[C@@H]3CC[C@H]([C@H]2c2nn[nH]n2)N3C)cc1 [RTI-157, 3β-(4-Methylphenyl)-tropane-2β-tetrazole Hydrochloride] | 32500 | – | – | 43600 | 28 | 21 | – | 1560 | – | – | – | – | – | –
17 | CN1[C@H]2CC[C@@H]1[C@@H](c1ncc(-c3ccccc3)o1)[C@@H](c1ccc(Cl)cc1)C2 [RTI-4229-189, 3β-(4-Chlorophenyl)-2β-(5-phenyl-oxazol-2-yl)-tropane Tartrate] | 496 ± 42 | 496 | – | – | 57 | 25 | 19.7 | 19.7 ± 1.98 | 1120 | 1120 ± 107 | – | – | – | –
18 | Cc1ccc([C@H]2C[C@@H]3CC[C@H]([C@H]2c2cc(-c4ccccc4)no2)N3C)cc1 [RTI-4229-176, 3β-(4-Methylphenyl)-2β-(3-phenylisoxazol-5-yl)tropane Hydrochloride] | 398 | 398 | 5110 | 5110 | 3234 | 251 | 1.58 | 1.58 | – | – | – | – | – | –
